From PMC11864979, “First-in-class ultralong-target-residence-time p38α inhibitors as a mitosis-targeted therapy for colorectal cancer” (Nature Cancer, 2025)
Read-outs that look alike come from different tables or passages of the source.

What was measured:
Assay in all cases: selectivity profiling in a panel of 340 wild-type kinases (Reaction Biology Europe)
Format in all cases: binding
340 wild-type kinases [1] = molecular target: T1, 340 wild-type kinases (Homo sapiens, UniProt P25098)
T1 construct: purchased Reaction Biology Europe
T1 sequence (P25098 1-689): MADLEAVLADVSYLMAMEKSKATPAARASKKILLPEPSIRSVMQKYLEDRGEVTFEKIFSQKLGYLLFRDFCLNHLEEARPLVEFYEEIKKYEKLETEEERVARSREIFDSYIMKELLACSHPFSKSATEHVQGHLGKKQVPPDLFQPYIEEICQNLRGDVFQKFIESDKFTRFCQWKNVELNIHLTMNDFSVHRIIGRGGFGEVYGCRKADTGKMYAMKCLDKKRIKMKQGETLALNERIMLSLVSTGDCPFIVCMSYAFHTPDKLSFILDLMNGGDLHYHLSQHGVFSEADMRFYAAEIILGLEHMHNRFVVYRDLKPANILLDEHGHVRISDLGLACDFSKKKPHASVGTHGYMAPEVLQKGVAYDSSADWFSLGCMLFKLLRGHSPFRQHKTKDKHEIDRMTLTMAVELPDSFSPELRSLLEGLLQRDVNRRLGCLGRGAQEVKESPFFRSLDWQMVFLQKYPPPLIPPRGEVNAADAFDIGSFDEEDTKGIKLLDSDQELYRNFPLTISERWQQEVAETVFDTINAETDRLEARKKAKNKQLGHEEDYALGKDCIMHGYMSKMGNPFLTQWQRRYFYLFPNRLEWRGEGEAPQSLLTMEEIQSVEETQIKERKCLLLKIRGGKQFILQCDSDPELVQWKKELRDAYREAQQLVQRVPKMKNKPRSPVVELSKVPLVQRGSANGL

340 wild-type kinases [2] = molecular target: T2, 340 wild-type kinases (Homo sapiens, UniProt P08581)
T2 construct: purchased Reaction Biology Europe
T2 sequence (P08581 25-1390): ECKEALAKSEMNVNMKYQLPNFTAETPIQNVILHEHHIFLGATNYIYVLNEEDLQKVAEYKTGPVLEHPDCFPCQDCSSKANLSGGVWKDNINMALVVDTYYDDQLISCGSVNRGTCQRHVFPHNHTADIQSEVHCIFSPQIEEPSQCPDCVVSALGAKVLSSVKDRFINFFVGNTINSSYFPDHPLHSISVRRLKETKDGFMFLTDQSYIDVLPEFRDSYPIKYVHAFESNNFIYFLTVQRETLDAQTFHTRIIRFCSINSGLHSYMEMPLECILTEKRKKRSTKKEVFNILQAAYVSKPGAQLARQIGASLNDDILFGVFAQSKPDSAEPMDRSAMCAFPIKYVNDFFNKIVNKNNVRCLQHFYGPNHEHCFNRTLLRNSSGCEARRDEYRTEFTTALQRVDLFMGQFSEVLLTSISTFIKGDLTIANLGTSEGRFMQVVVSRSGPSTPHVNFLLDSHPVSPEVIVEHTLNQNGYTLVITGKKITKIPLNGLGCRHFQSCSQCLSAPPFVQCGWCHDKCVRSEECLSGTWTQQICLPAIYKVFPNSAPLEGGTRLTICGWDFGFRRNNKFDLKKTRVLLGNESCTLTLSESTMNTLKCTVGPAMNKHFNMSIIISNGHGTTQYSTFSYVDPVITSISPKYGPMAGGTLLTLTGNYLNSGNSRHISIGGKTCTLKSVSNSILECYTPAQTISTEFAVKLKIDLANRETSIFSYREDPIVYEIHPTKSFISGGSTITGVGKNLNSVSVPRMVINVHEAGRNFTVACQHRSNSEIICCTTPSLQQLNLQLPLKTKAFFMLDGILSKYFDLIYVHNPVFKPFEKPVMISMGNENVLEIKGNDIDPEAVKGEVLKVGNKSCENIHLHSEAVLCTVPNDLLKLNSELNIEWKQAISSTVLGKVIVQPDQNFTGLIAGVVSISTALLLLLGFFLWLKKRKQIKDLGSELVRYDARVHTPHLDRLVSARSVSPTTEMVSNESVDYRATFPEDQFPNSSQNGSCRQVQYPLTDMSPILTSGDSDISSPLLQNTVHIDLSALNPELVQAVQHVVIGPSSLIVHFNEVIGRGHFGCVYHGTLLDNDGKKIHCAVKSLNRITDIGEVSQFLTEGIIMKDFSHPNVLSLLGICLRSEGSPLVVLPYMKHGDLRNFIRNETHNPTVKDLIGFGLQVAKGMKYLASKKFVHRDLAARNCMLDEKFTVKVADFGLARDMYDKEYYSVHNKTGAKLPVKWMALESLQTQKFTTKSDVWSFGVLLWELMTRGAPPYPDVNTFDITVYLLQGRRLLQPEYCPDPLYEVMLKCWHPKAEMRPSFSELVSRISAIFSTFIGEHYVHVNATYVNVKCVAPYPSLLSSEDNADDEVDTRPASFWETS

340 wild-type kinases [3] = molecular target: T3, 340 wild-type kinases (Homo sapiens, UniProt P11309)
T3 construct: purchased Reaction Biology Europe
T3 sequence (P11309 whole entry): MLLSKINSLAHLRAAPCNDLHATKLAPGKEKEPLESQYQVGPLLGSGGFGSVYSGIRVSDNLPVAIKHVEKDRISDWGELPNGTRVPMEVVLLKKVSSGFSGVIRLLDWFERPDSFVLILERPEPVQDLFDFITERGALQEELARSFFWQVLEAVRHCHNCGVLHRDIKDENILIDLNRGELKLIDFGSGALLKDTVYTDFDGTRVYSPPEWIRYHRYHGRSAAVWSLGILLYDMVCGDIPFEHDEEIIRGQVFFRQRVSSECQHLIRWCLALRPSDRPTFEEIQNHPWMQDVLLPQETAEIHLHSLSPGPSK

340 wild-type kinases [4] = molecular target: T4, 340 wild-type kinases (Homo sapiens, UniProt Q5TCY1)
T4 construct: purchased Reaction Biology Europe
T4 sequence (Q5TCY1 whole entry): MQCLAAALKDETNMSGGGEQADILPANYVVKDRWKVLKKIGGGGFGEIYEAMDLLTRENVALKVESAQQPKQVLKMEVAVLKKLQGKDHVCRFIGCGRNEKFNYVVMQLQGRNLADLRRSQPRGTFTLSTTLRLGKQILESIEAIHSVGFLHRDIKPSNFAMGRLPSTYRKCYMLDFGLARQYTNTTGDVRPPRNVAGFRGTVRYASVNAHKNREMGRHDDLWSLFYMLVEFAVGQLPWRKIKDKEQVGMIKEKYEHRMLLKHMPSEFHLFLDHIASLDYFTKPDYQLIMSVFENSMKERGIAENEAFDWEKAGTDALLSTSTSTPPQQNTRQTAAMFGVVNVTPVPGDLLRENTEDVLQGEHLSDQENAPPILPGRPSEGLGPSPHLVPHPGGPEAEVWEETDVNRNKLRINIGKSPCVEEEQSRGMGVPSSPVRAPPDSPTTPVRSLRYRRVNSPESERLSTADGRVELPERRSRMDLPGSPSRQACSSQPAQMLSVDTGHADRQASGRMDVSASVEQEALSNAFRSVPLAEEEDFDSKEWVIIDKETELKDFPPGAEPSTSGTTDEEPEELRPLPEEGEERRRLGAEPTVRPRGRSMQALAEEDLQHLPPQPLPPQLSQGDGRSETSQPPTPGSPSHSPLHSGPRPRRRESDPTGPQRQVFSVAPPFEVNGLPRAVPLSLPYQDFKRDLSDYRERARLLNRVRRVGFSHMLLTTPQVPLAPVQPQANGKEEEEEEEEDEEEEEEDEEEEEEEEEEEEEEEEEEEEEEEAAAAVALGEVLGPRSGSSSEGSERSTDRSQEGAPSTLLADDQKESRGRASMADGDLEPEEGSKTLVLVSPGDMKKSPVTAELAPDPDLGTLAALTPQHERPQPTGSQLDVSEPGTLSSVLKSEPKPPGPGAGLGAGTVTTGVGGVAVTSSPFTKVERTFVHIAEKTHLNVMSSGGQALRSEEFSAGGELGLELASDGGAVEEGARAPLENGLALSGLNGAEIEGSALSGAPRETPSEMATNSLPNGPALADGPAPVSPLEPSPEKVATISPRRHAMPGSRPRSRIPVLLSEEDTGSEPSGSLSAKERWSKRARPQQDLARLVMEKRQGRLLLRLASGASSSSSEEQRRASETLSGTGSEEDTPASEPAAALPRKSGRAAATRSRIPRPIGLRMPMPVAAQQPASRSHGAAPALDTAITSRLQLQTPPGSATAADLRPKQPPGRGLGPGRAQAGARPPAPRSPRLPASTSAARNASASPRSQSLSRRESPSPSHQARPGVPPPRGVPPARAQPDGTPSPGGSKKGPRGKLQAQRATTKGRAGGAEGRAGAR

340 wild-type kinases [5] = molecular target: T5, 340 wild-type kinases (Homo sapiens, UniProt Q06187)
T5 construct: purchased Reaction Biology Europe
T5 sequence (Q06187 whole entry): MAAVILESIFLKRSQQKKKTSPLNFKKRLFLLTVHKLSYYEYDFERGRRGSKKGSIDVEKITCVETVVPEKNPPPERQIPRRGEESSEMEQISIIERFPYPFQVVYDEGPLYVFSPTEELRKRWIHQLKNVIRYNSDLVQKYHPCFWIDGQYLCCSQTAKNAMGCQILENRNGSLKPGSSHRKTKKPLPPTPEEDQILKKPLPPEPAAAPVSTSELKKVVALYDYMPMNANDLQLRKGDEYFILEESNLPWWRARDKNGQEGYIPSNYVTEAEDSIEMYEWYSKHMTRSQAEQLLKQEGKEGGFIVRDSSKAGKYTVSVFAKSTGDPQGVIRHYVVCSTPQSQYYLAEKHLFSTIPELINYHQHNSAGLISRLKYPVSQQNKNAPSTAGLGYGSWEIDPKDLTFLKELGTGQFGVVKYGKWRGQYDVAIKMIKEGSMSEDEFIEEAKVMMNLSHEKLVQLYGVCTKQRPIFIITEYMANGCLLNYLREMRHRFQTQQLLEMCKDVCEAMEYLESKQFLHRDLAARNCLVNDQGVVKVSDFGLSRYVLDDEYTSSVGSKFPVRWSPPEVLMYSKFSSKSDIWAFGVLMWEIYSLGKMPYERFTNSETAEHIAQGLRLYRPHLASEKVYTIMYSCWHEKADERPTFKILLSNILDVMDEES

340 wild-type kinases [6] = molecular target: T6, 340 wild-type kinases (Homo sapiens, UniProt Q99640)
T6 construct: purchased Reaction Biology Europe
T6 sequence (Q99640 1-499): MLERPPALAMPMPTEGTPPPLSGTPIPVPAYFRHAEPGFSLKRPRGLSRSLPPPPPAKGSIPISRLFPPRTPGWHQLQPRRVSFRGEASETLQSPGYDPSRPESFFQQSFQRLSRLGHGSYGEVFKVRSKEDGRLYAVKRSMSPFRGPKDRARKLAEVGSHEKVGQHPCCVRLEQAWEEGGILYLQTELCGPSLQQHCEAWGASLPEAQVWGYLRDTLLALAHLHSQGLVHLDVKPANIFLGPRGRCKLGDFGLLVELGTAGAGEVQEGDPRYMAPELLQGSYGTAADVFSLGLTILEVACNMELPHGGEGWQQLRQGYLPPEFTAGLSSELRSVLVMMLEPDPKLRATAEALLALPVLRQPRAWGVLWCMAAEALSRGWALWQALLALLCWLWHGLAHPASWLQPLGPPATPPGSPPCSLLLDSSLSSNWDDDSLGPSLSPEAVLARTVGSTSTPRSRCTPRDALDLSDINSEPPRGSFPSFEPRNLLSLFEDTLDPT

340 wild-type kinases [7] = molecular target: T7, 340 wild-type kinases (Homo sapiens, UniProt Q96SB4)
T7 construct: purchased Reaction Biology Europe
T7 sequence (Q96SB4 whole entry): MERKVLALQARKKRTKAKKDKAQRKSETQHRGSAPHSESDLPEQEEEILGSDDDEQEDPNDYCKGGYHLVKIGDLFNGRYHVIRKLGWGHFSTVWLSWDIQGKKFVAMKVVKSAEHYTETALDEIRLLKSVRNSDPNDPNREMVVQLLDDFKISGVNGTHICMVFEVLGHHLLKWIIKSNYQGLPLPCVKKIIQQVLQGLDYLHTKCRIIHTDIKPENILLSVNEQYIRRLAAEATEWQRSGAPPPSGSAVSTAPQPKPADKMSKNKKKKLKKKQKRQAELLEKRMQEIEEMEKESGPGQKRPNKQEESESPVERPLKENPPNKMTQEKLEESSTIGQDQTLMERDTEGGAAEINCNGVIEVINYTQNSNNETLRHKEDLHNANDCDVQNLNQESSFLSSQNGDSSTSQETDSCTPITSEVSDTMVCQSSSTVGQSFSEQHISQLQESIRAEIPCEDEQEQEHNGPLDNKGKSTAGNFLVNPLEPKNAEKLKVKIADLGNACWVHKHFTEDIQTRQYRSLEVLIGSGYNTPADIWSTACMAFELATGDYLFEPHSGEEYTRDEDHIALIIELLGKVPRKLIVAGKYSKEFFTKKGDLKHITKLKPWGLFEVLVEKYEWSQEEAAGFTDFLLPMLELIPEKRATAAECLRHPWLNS

340 wild-type kinases [8] = molecular target: T8, 340 wild-type kinases (Homo sapiens, UniProt P53667)
T8 construct: purchased Reaction Biology Europe

340 wild-type kinases [9] = molecular target: T9, 340 wild-type kinases (Homo sapiens, UniProt Q99759)
T9 construct: purchased Reaction Biology Europe
T9 sequence (Q99759 1-626): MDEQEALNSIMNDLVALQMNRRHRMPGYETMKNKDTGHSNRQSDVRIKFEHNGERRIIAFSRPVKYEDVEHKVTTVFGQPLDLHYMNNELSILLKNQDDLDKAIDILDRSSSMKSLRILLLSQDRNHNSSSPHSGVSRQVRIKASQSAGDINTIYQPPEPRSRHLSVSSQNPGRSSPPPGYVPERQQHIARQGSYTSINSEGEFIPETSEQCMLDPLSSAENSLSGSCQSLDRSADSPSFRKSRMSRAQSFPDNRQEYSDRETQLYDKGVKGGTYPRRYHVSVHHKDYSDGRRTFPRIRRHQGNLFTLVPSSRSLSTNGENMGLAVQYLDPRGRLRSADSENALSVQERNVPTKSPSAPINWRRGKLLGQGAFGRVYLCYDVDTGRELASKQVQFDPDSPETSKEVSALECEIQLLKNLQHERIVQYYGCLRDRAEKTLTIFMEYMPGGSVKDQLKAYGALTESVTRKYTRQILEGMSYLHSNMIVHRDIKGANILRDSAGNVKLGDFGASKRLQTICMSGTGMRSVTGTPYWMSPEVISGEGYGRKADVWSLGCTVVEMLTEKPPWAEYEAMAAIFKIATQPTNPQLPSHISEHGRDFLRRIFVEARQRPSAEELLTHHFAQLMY

340 wild-type kinases [10] = molecular target: T10, 340 wild-type kinases (Homo sapiens, UniProt P31749)
T10 construct: purchased Reaction Biology Europe
T10 sequence (P31749 whole entry): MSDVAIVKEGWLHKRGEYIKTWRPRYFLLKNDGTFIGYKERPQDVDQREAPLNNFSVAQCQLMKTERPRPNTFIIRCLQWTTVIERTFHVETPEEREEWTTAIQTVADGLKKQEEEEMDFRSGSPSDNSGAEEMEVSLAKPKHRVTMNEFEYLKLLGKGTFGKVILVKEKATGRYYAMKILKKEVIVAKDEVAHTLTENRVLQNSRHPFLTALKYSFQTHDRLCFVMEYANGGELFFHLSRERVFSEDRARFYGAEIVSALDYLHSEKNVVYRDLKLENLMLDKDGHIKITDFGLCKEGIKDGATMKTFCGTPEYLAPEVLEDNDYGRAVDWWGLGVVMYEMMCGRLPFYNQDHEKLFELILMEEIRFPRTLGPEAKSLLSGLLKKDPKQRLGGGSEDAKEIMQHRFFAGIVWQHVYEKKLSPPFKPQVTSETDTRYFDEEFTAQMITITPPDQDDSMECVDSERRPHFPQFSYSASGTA

## CNC(=O)c1ccc2c(c1)C(=O)c1ccc(Nc3ccc(F)c(NC(=O)C4CC4)c3)cc1CC2 [Compound 2015]
340 wild-type kinases [1]; 0.2 µM 2015, read-out: GRK2 residual activity
  remaining activity at 0.2 µM: 89.1%
340 wild-type kinases [1]; GRK2, 0.2 µM, read-out: residual activity
  remaining activity at 0.2 µM: 89.2%
340 wild-type kinases [1]; GRK2, 1 µM, read-out: residual activity
  remaining activity at 1 µM: 80.8%
340 wild-type kinases [2]; 0.2 µM 2015, read-out: MET residual activity
  remaining activity at 0.2 µM: 96.7%
340 wild-type kinases [2]; 1 µM 2015, read-out: MET residual activity
  remaining activity at 1 µM: 93.5%
340 wild-type kinases [2]; MET, 0.2 µM, read-out: residual activity
  remaining activity at 0.2 µM: 96.7%
340 wild-type kinases [2]; MET, 1 µM, read-out: residual activity
  remaining activity at 1 µM: 93.5%
340 wild-type kinases [3]; 0.2 µM 2015, read-out: PIM1 residual activity
  remaining activity at 0.2 µM: 88.3%
340 wild-type kinases [3]; 1 µM 2015, read-out: PIM1 residual activity
  remaining activity at 1 µM: 91%
340 wild-type kinases [3]; PIM1, 0.2 µM, read-out: residual activity
  remaining activity at 0.2 µM: 88.3%
340 wild-type kinases [3]; PIM1, 1 µM, read-out: residual activity
  remaining activity at 1 µM: 91%
340 wild-type kinases [4]; 0.2 µM 2015, read-out: TTBK1 residual activity
  remaining activity at 0.2 µM: 88.5%
340 wild-type kinases [4]; 1 µM 2015, read-out: TTBK1 residual activity
  remaining activity at 1 µM: 93.4%
340 wild-type kinases [4]; TTBK1, 0.2 µM, read-out: residual activity
  remaining activity at 0.2 µM: 88.5%
340 wild-type kinases [4]; TTBK1, 1 µM, read-out: residual activity
  remaining activity at 1 µM: 93.4%
340 wild-type kinases [5]; 0.2 µM 2015, read-out: BTK residual activity
  remaining activity at 0.2 µM: 116%
340 wild-type kinases [5]; 1 µM 2015, read-out: BTK residual activity
  remaining activity at 1 µM: 106%
340 wild-type kinases [5]; BTK, 0.2 µM, read-out: residual activity
  remaining activity at 0.2 µM: 116%
340 wild-type kinases [5]; BTK, 1 µM, read-out: residual activity
  remaining activity at 1 µM: 106%
340 wild-type kinases [6]; 0.2 µM 2015, read-out: PKMYT1 residual activity
  remaining activity at 0.2 µM: 98.1%
340 wild-type kinases [6]; 1 µM 2015, read-out: PKMYT1 residual activity
  remaining activity at 1 µM: 102%
340 wild-type kinases [6]; PKMYT1, 0.2 µM, read-out: residual activity
  remaining activity at 0.2 µM: 98%
340 wild-type kinases [6]; PKMYT1, 1 µM, read-out: residual activity
  remaining activity at 1 µM: 102%
340 wild-type kinases [7]; 0.2 µM 2015, read-out: SRPK1 residual activity
  remaining activity at 0.2 µM: 108%
340 wild-type kinases [7]; 1 µM 2015, read-out: SRPK1 residual activity
  remaining activity at 1 µM: 105%
340 wild-type kinases [7]; SRPK1, 0.2 µM, read-out: residual activity
  remaining activity at 0.2 µM: 108%
340 wild-type kinases [7]; SRPK1, 1 µM, read-out: residual activity
  remaining activity at 1 µM: 105%
340 wild-type kinases [8]; 0.2 µM 2015, read-out: LIMK1 residual activity
  remaining activity at 0.2 µM: 102%
340 wild-type kinases [8]; 1 µM 2015, read-out: LIMK1 residual activity
  remaining activity at 1 µM: 92.9%
340 wild-type kinases [8]; LIMK1, 0.2 µM, read-out: residual activity
  remaining activity at 0.2 µM: 102%
340 wild-type kinases [8]; LIMK1, 1 µM, read-out: residual activity
  remaining activity at 1 µM: 92.9%
340 wild-type kinases [9]; 0.2 µM 2015, read-out: MEKK3 residual activity
  remaining activity at 0.2 µM: 105%
340 wild-type kinases [9]; 1 µM 2015, read-out: MEKK3 residual activity
  remaining activity at 1 µM: 101%
340 wild-type kinases [9]; MEKK3, 0.2 µM, read-out: residual activity
  remaining activity at 0.2 µM: 105%
340 wild-type kinases [9]; MEKK3, 1 µM, read-out: residual activity
  remaining activity at 1 µM: 101%
340 wild-type kinases [10]; 0.2 µM 2015, read-out: AKT1 residual activity
  remaining activity at 0.2 µM: 100%
340 wild-type kinases [10]; 1 µM 2015, read-out: AKT1 residual activity
  remaining activity at 1 µM: 98.7%
340 wild-type kinases [10]; AKT1, 0.2 µM, read-out: residual activity
  remaining activity at 0.2 µM: 100%
340 wild-type kinases [10]; AKT1, 1 µM, read-out: residual activity
  remaining activity at 1 µM: 98.7%
